Holding throughout (experiment): normalised viability (% of control), CellTiter-Blue; higher = more viable cells (about 100 = DMSO control)
What all share (conditions): incubation time: 72 h
(In general: The colour change of resazurin is a common sign of viable cells or microbes.)

Test [1] concerns CAL-148. As for the experimental part:
(§1)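 DSRT, CellTiter-Blue viability, 72 h incubation. Signal is normalised to DMSO and benzethonium chloride controls. Value is the normalised response at dose 7.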

For test [2], the system named is HDQ-P1. As for the experimental part: as §1
Test [3] deals with CAL-51. As for the experimental part:
as §1

Test [4] relates to MDA-MB-453. As for the experimental part:
as §1

In test [5] the test system is CAL-85-1. As for the experimental part:
as §1

Test [6] deals with DU-4475. As for the experimental part:
as §1

The subject of test [7] is CAL-148. As for the experimental part:
(§2)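 DSRT, CellTiter-Blue viability, 72 h incubation. Signal is normalised to DMSO and benzethonium chloride controls. Value is the normalised response at dose 8.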
This is another data set of the same source.

Test [8] deals with HDQ-P1. As for the experimental part:
as §2
This is another data set of the same source.

The subject of test [9] is CAL-51. As for the experimental part:
as §2
This is another data set of the same source.

The test system of test [10] is MDA-MB-453. As for the experimental part: as §2
This is another data set of the same source.

Test [11] concerns CAL-85-1. As for the experimental part: as §2
This is another data set of the same source.

Test [12] relates to DU-4475. As for the experimental part: as §2
This is another data set of the same source.

“And” between values parts separate entries of the source, which are not always exact repeats. Equal entries are not always repeated.

For the compound `Cc1cc(Nc2cc(CN3CCOCC3)c3nc(C)c(Cc4ccc(Cl)cc4F)n3n2)n[nH]1` (1000 nM), the normalised viability in the test on CAL-148 [1] worked out at 94.6%; in the test with HDQ-P1 [2], 72.5%; in the test on CAL-51 [3] it was 85.8%; in the test with MDA-MB-453 [4], 53.3%; with CAL-85-1 [5] it was 86.5%; in the test on DU-4475 [6], 94%.
On to `c1ccc2c(CCNc3ccc(Nc4ccncc4)cc3)c[nH]c2c1` [Serdemetan] (3000 nM), for which the normalised viability in the test with CAL-148 [7] is 67%; in the test on HDQ-P1 [8] it was 89%; in the test with CAL-51 [9], 88.5%; in the test on MDA-MB-453 [10], 66.8%; in the test on CAL-85-1 [11], 67.1%; with DU-4475 [12], 79.5%.
Regarding `COc1cc2/c(=N/c3ccc(Br)cc3F)nc[nH]c2cc1OCC1CCN(C)CC1` [Vandetanib] (3000 nM), the normalised viability in the test on CAL-148 [7] turned out to be 77%; in the test on HDQ-P1 [8] it was 27.5%; in the test with CAL-51 [9], 49.2%; in the test on MDA-MB-453 [10], 72.3%; with CAL-85-1 [11], 50.5%; in the test on DU-4475 [12], 125%.
As to `O=C(Nc1ccncc1)C(=O)c1cn(Cc2ccc(Cl)cc2)c2ccccc12` [Indibulin] (3000 nM), the normalised viability in the test on CAL-148 [7] worked out at 83.8%; in the test with HDQ-P1 [8] it was 54.7%; in the test with CAL-51 [9], 25.5%; with MDA-MB-453 [10], 39.5%; in the test with CAL-85-1 [11] it was 39.7%; in the test with DU-4475 [12], 22.6%.
`CCc1c2c(nc3ccc(OC(=O)N4CCC(N5CCCCC5)CC4)cc13)-c1cc3c(c(=O)n1C2)COC(=O)[C@]3(O)CC` [Irinotecan] (3000 nM): the normalised viability in the test with CAL-148 [7] is 28% and 42%; in the test with CAL-51 [9] it was 49.9% and 64.2%; in the test with MDA-MB-453 [10], 73.3% and 90.7%; in the test on CAL-85-1 [11], 63.7% and 73.4%; in the test with DU-4475 [12] it was 44.3% and 57.5%.
As for `S=P(N1CC1)(N1CC1)N1CC1` [Thio-TEPA] (10000 nM), the normalised viability in the test with CAL-148 [1] is 113%; with HDQ-P1 [2], 113%; in the test with CAL-51 [3] it was 89.6%; with MDA-MB-453 [4], 121%; in the test with CAL-85-1 [5] it was 91.3%; in the test with DU-4475 [6], 96.6%.
As to `S=P(N1CC1)(N1CC1)N1CC1` [Thio-TEPA] (30000 nM), the normalised viability came out at 127% in the test with CAL-148 [7]; 108% in the test with HDQ-P1 [8]; 102% in the test on CAL-51 [9]; 97% with MDA-MB-453 [10]; 97.8% with CAL-85-1 [11]; 103% in the test with DU-4475 [12].
Consider `COc1cc2ncnc(Nc3ccc(F)c(Cl)c3)c2cc1OCCCN1CCOCC1` [Gefitinib] (3000 nM), for which the normalised viability in the test with CAL-148 [7] was 76% and 67.1%; in the test on HDQ-P1 [8], 77% and 86.2%; in the test on CAL-51 [9], 96.4% and 96.1%; in the test with MDA-MB-453 [10], 79.3% and 69.5%; with CAL-85-1 [11], 55.9% and 54%; in the test with DU-4475 [12] it was 101%.
`CN(C)CCOc1ccc(/C(=C(/CCCl)c2ccccc2)c2ccccc2)cc1` [Toremifene] (3000 nM): the normalised viability with CAL-148 [7] turned out to be 104%; in the test with HDQ-P1 [8] it was 113%; in the test on CAL-51 [9] it was 95.8%; in the test on MDA-MB-453 [10], 99.7%; in the test on CAL-85-1 [11], 109%; in the test on DU-4475 [12], 101%.
On to `Cc1[nH]c2ccccc2c1CCNCc1ccc(/C=C/C(=O)NO)cc1` [Panobinostat] (300 nM), for which the normalised viability with CAL-148 [7] was determined as 1.12%; in the test with HDQ-P1 [8], 23.1%; in the test with CAL-51 [9], 5.46%; in the test with MDA-MB-453 [10], 1.93%; with CAL-85-1 [11] it was 7.2%; in the test on DU-4475 [12] it was 6.86%.
In the case of `COc1cc(OC2CCN(C)CC2)ccc1Nc1ncc2c(n1)n(C1CCCC1)c(=O)n2C` [AZ 3146] (3000 nM), the normalised viability in the test on CAL-148 [7] is 43.5%; in the test with HDQ-P1 [8], 72.4%; in the test with CAL-51 [9], 28%; in the test on MDA-MB-453 [10] it was 69.6%; in the test on CAL-85-1 [11], 84.5%; in the test with DU-4475 [12] it was 89%.
For the compound `CN(C)c1nc(N(C)C)nc(N(C)C)n1` [Altretamine] (3000 nM), the normalised viability with CAL-148 [7] is 97%; with HDQ-P1 [8] it was 99.9%; in the test on CAL-51 [9], 114%; in the test with MDA-MB-453 [10], 108%; in the test on CAL-85-1 [11], 97.8%; in the test on DU-4475 [12], 115%.
As for `Oc1ccc2c(c1)CC[C@H](c1ccccc1)[C@@H]2c1ccc(OCCN2CCCC2)cc1` [Lasofoxifene] (300 nM), the normalised viability came to 98.2% in the test with CAL-148 [7]; 102% in the test with HDQ-P1 [8]; 109% in the test with CAL-51 [9]; 104% in the test on MDA-MB-453 [10]; 96.8% in the test with CAL-85-1 [11]; 96.4% with DU-4475 [12].
Consider `C=C1C[C@@H]2[C@H](CC[C@]3(C)C(=O)CC[C@@H]23)[C@@]2(C)C=CC(=O)C=C12` [Exemestane] (3000 nM), for which the normalised viability is 104% in the test on CAL-148 [7]; 92.4% in the test on HDQ-P1 [8]; 110% with CAL-51 [9]; 79% with MDA-MB-453 [10]; 90.7% in the test with CAL-85-1 [11]; 106% in the test on DU-4475 [12].
Turning to `Nc1cc(C(F)(F)F)c(-c2cc(N3CCOCC3)nc(N3CCOCC3)n2)cn1` [BKM-120] (1000 nM), the normalised viability was determined as 83.7% with CAL-148 [1]; 63.2% in the test with HDQ-P1 [2]; 56.9% in the test with CAL-51 [3]; 32.4% with MDA-MB-453 [4]; 58.3% with CAL-85-1 [5]; 92.9% in the test on DU-4475 [6].
As to `CC(C)C[C@@H](C(=O)N[C@H](C(=O)OC1CCCC1)c1ccccc1)[C@H](O)C(=O)NO` [Tosedostat] (3000 nM), the normalised viability in the test on CAL-148 [7] worked out at 56.5%; in the test on HDQ-P1 [8], 72.9%; in the test on CAL-51 [9], 75.3%; in the test on MDA-MB-453 [10], 49.8%; with CAL-85-1 [11] it was 61.1%; in the test with DU-4475 [12], 48.1%.
With `COCC[n+]1c2c(n(Cc3cnccn3)c1C)C(=O)c1ccccc1C2=O` [YM155] (3000 nM), the normalised viability in the test with CAL-148 [7] was found to be 2.73%; with HDQ-P1 [8], 0.93%; with CAL-51 [9], 1.46%; in the test with MDA-MB-453 [10], 2.38%; with CAL-85-1 [11], 2.51%; with DU-4475 [12], 0.2%.
For the compound `COC(=O)c1ccc2c(c1)NC(=O)/C2=C(\Nc1ccc(N(C)C(=O)CN2CCN(C)CC2)cc1)c1ccccc1` [BIBF 1120] (1000 nM), the normalised viability with CAL-148 [1] was determined as 99%; in the test on HDQ-P1 [2], 119%; with CAL-51 [3] it was 68.2%; in the test with MDA-MB-453 [4], 78.2%; in the test on CAL-85-1 [5] it was 111%; in the test on DU-4475 [6], 96.8%.
For `CNC(=O)c1cc(Oc2ccc(NC(=O)Nc3ccc(Cl)c(C(F)(F)F)c3)c(F)c2)ccn1` [Regorafenib] (3000 nM), the normalised viability with CAL-148 [7] was 95.8%; in the test with HDQ-P1 [8] it was 88.4%; in the test on CAL-51 [9] it was 69.5%; with MDA-MB-453 [10], 53.1%; in the test on CAL-85-1 [11] it was 86.6%; in the test with DU-4475 [12], 67.6%.
Regarding `Cc1cc(Nc2cc(CN3CCOCC3)c3nc(C)c(Cc4ccc(Cl)cc4F)n3n2)n[nH]1` (3000 nM), the normalised viability was 76.1% in the test on CAL-148 [7]; 35.5% with HDQ-P1 [8]; 38.2% in the test on CAL-51 [9]; 60.7% in the test with MDA-MB-453 [10]; 59.4% in the test with CAL-85-1 [11]; 52.4% in the test with DU-4475 [12].

For the origin of these results see the supplement of paper PMC4862054.
